{"source": "patent US20080051464A1", "about": "“Protein phosphatase inhibitors” (The Cleveland Clinic Foundation, priority 2006, published 2008)", "key": {"[1]": {"tested_on": "pZap70, pSlp76 and pLAT in Jurkat cells", "assay": "induction of pZap70, pSlp76 and pLAT in Jurkat cells (Western blotting)", "type": "cell-based, human", "procedure": "Jurkat cells in culture medium (3×10^6 cells/ml, 1 ml/tube) were treated with agents for designated times at room temperature. After brief centrifuging in a microfuge (4,000 rpm, 2 min), the cell pellet was lysed on ice for 30 min in 100 μl of cold lysis buffer (1% NP40, 50 mM Tris, pH 7.4, 150 mM NaCl, 20 mM NaF, 0.2 mM Na3VO4 and 1 mM Na3MO4) containing a cocktail of proteinase inhibitors (Sigma, 1 tablet/10 ml). The lysates were cleared by centrifuging (14,000 rpm, 10 min) in a microfuge at 4° C. to remove insoluble parts, mixed with equal volume of 2×SDS-PAGE sample buffer, boiled for 5 min and analyzed (˜3×10^5 cells/well) by SDS-PAGE/Western blotting. Relative intensities of phosphotyrosine bands were quantified through densitometry analysis.\nJurkat cells in culture medium (3×10^6 cells/ml, 1 ml/tube) were treated with agents for designated times at room temperature. […] The lysates were cleared by centrifuging (14,000 rpm, 10 min) in a microfuge at 4° C. to remove insoluble parts, mixed with equal volume of 2×SDS-PAGE sample buffer, boiled for 5 min and analyzed (˜3×10^5 cells/well) by SDS-PAGE/Western blotting as described previously (17, 18). Relative intensities of phosphotyrosine bands were quantified through densitometry analysis."}, "[2]": {"tested_on": "IFNγ+ cells in mouse splenocytes", "assay": "induction of IFNγ+ cells in mouse splenocytes in vitro (ELISPOT)", "type": "cell-based", "conditions": "for increase of IFNγ+ cells in splenocytes: 16 hrs (FIG. 5A)", "procedure": "The splenocytes were cultured in RPMI 1640 medium supplemented with 10% FCS in the absence or presence of designated agents for 16 hrs in flat-bottom 96-well plates coated with a monoclonal antibody specific for mouse IFNγ (mouse IFNγ ELISPOT Kit, R & D System). The plates were then processed for in situ detection of IFNγ+ cells by ELISA following the manufacturer's procedure. Scanning and counting of IFNγ+ cells in the plates were accomplished using an automatic ELISPOT reader with Immunospot2 software (Cellular Technology Ltd). Mouse splenocytes were also untreated or treated with agents for 16 hrs in culture dishes and then stained with appropriate isotype control antibodies or FICT-labeled anti-CD3 monoclonal antibody (BD) plus PE-labeled monoclonal antibody (BD) for intracellular IFNγ following established procedures. The stained samples were washed 3 times, re-suspended in 200 μl of 1% para-formaldehyde solution and analyzed (20,000 cells/sample) using a BD FACS Caliburs cytometer and WinList software.\nThe splenocytes were cultured in RPMI 1640 medium supplemented with 10% FCS in the absence or presence of designated agents for 16 hrs in flat-bottom 96-well plates coated with a monoclonal antibody specific for mouse IFNγ (mouse IFNγ ELISPOT Kit, R & D System). The plates were then processed for in situ detection of IFNγ+ cells by ELISA following the manufacturer's procedure. Scanning and counting of IFNγ+ cells in the plates were accomplished using an automatic ELISPOT reader with Immunospot2 software (Cellular Technology Ltd)."}}}
{"smiles": "O=C1C=CC(=O)C(c2cc(Cl)ccc2Cl)=C1", "note": "[L5]", "values": [{"measurement": "levels of pZap70 and pSlp76", "setting": "[1]; 0.01, 0.1, 1 or 3 μg/ml", "result": "obviously increased"}, {"measurement": "pLAT", "setting": "[1]; L5-treated Jurkat cells", "result": "induced pLAT"}, {"measurement": "induction of IFNγ+ cells", "setting": "[2]; 0.001 μg/ml (FIG. 11)", "result": "inactive"}, {"measurement": "increase of IFNγ+ cells in splenocytes", "setting": "[2]; 1 μg/ml", "result": "~14", "unit": "fold"}, {"measurement": "increase of IFNγ+ cells in splenocytes", "setting": "[2]; 3 μg/ml", "result": "~26", "unit": "fold"}, {"measurement": "increase of IFNγ+ cells in splenocytes", "setting": "[2]; 10 μg/ml", "result": "~17", "unit": "fold"}, {"measurement": "increase of IFNγ+ cells in splenocytes", "setting": "[2]; 30 μg/ml", "result": "~10", "unit": "fold"}, {"measurement": "induction of IFNγ+ cells", "setting": "[2]; 0.01 to 1 μg/ml (FIG. 11A)", "result": "effective"}, {"measurement": "minimal effective dose for IFNγ+ cell induction", "setting": "[2]; FIG. 11", "result": 10, "unit": "ng/mL"}, {"measurement": "induction of IFNγ+ cells", "setting": "[2]; higher doses (FIG. 16B)", "result": "induced significant IFNγ+ cells"}, {"measurement": "induction of IFNγ+ cells", "setting": "[2]; low doses (0.01 to 1 μg/ml), splenocytes of the same mouse (FIG. 16B)", "result": "3-4 fold"}, {"measurement": "effectiveness compared with SSG in inducing IFNγ+ cells", "setting": "[2]; maximal induction at a comparable dose, mouse splenocytes", "result": "~58", "unit": "fold"}]}
